Source: patent publication US6863883B1, “Permanent wave agent composition having dyeing effect and method for dyeing hair using the same” (Henkel Lion Cosmetics Co. Ltd., priority 1998, dated 2005)

What was measured:
[1] = Dyeability test of second solution containing a dye on goat hair; set-up: key: ⊚: Deeply dyed and an original white color of the goat hair is not prominent; ◯: Dyed to a degree that an original white color of the goat hair is not prominent; Δ: Dyed, but prominent in an original white color of the goat hair; X: Only an original white color of the goat hair; conditions: first solution 30° C. 15 minutes, then second solution with 0.2% dye
Experimental: To approximately 2 g of goat hair, approximately 2 g of a first solution of a permanent waving composition was applied, and the hair was allowed to stand in a constant temperature bath at 30° C. for 15 minutes. Then, approximately 2 g of the same filtered second solution of a permanent waving composition as that described in Test Example 1 was applied to the hair, and the hair was shampooed and treated with a hair rinse conditioner, and adequately rinsed with water. After drying the hair, dyeability for the hair was evaluated.
(§1) Thereafter, the hair which was dyed in the dyeability test was allowed to stand for 24 hours after dyeing, then immersed into 300 ml of an aqueous solution containing 0.03/sodium polyoxyethylene (2 E.O.) alkyl (12, 13) ether sulfate at 80° C. for 10 minutes. Then, the hair was adequately rinsed with warm water, dried, and fastness was evaluated by observing dyeability for the hair after the test. The evaluation was conducted based on the following criteria: • ⊚: Deeply dyed and an original white color of the goat hair is not prominent • ◯: Dyed to a degree that an original white color of the goat hair is not prominent • Δ: Dyed, but prominent in an original white color of the goat hair • X: Only an original white color of the goat hair.

[2] = Stability with time of a second solution of a permanent waving composition containing a direct dye (storage at 45° C.); type: physicochemical; conditions: for pH (45° C.) Initial / pH (45° C.) 2 weeks / pH (45° C.) 4 weeks: 0.2% dye in second solution; for pH (45° C.) 2 weeks / pH (45° C.) 4 weeks: stored at 45° C.; for Ratio of dye that remains solubilized after 4 weeks at 45° C.: absorbance at maximum wavelength, initial value defined as 100%
Excerpt: Each of an acidic dye, tar-series pigment and cationic dye which are a direct dye was weighed out so as to be 0.2% by weight in terms of the active ingredient, and added to a second solution of a permanent waving composition formulated as shown in Table 1 to stir.
As the acidic dye. […] In the tar-series pigment, HC BLUE 2 and HC YELLOW 2 (manufactured by JAMS ROBINSON Inc.) were used. And, as the […] dye, (A): (1-methyl-1-paramethoxyphenyl)-2-(1-methane-4N-methylpyridinium)hydrazine chloride, (B): 4-dimethylaminophenylazo-2N— methyl-5N-methylimidazolium chloride and (C): 4-aminophenylazo-2N-methyl-5N-methylimidazo ium chloride (manufactured by Ciba Specialty Chemicals, Inc.) were used.
The sample was stored at 45° C., and stability of the sample with time was evaluated for solubility of the dye in the sample, pH, absorption spectra in a visible light range.
The evaluation for solubility of the dye was conducted based on the following criteria: • ◯: No change in solubility compared to that measured two weeks before; and • X: Precipitation of the dye
A pH was measured with a pH meter manufactured by HORIBA Inc. Limited. Moreover, the evaluation for the absorption spectra in the visible light range was conducted by measuring an absorbance at the maximum absorbance wavelength in the absorption spectra in the visible light range using HITACHI U-3210 (using a quartz cuvette having 10 mm optical path) and calculating a ratio of the dye that remains solubilized after 4 weeks by defining the initial measured solubilized value as 100%.

[3] = Fastness test of dyed goat hair (surfactant solution at 80° C. for 10 minutes); set-up: key: ⊚: Deeply dyed and an original white color of the goat hair is not prominent; ◯: Dyed to a degree that an original white color of the goat hair is not prominent; Δ: Dyed, but prominent in an original white color of the goat hair; X: Only an original white color of the goat hair; conditions: 24 hours after dyeing, surfactant solution 80° C. 10 minutes
Experimental: as §1

[4] = Effect of water content (propylene glycol) on dyeability (Test Example 6); set-up: species or system goat; conditions: 0.05% solution, pH 9
Excerpt: (§2) Thereafter, each 2 g of the first solution and the second solution not containing the dye was applied to the permanently waved hair under the same condition as that described above. After the treatment with the second solution, the hair was adequately washed with water, and 2 g of a 0.05/aqueous solution of the cationic dye (B) which had been adjusted to pH 9 was applied to the hair which had been permanently waved and the untreated hair, respectively, which were allowed to stand at a treatment temperature of 30° C. for a treatment period of 30 minutes. Then, the hair was shampooed and treated with a hair rinse conditioner, adequately rinsed with water and dried, and dyeability was evaluated. Dyeability was evaluated according to a brightness of JIS standard color chart. The smaller value thereof indicates higher dyeability.
0.05% aqueous solutions of a cationic dye (C), each containing 0, 10, 20, 30, 40 and 50% propylene glycol respectively, were adjusted to pH 9.4 g of each solution was applied to approximately 2 g of goat hair, and the goat hair was allowed to stand in a constant temperature bath at 30° C. for 30 minutes. Then, the hair was shampooed and treated with a hair rinse conditioner, and adequately washed with water and dyeability was evaluated according to the same manner as that described in Test Example 4.

[5] = Effect of pH of cationic dye solution on dyeability (Test Example 5); set-up: species or system goat; conditions: 0.05% aqueous solution, 30 minutes
Excerpt: as §2
A 0.05% aqueous solution of a cationic dye (C) was adjusted to pH 3, 5, 7, 9 or 11, and 4 g thereof was applied to approximately 2 g of goat hair. The, hair was allowed to stand in a constant temperature bath at 30° C. for 30 minutes. Then, the hair was shampooed and treated with a hair rinse conditioner, adequately washed with water and dried, and dyeability was evaluated according to the same manner as that described in Test Example 4.

SMILES | Dyeability [1] | pH (45° C.) Initial [2] | pH (45° C.) 2 weeks [2] | pH (45° C.) 4 weeks [2] | Fastness [3] | Ratio of dye that remains solubilized after 4 weeks at 45° C. [2] [%] | Stability with time in the second solution of the permanent waving composition ([2]; summary of Table 2, 45° C.) | Dyeability (JIS brightness) ([4]; propylene glycol 0 wt %) | Dyeability (JIS brightness) ([4]; propylene glycol 10 wt %) | Dyeability (JIS brightness) ([4]; propylene glycol 20 wt %) | Dyeability (JIS brightness) ([4]; propylene glycol 30 wt %) | Dyeability (JIS brightness) ([4]; propylene glycol 40 wt %) | Dyeability (JIS brightness) ([4]; propylene glycol 50 wt %) | Dyeability (JIS brightness) ([5]; pH 3, 30° C.) | Dyeability (JIS brightness) ([5]; pH 5, 30° C.) | Dyeability (JIS brightness) ([5]; pH 7, 30° C.) | Dyeability (JIS brightness) ([5]; pH 9, 30° C.) | Dyeability (JIS brightness) ([5]; pH 11, 30° C.)
Nc1c(N=Nc2ccc([N+](=O)[O-])cc2)c(S(=O)(=O)[O-])cc2cc(S(=O)(=O)[O-])c(N=Nc3ccccc3)c(O)c12.[Na+].[Na+] [BLACK 401] | ◯ | 6.43 | 6.44 | 6.45 | X |  |  |  |  |  |  |  |  |  |  |  |  | 
O=[N+]([O-])c1cc(N(CCO)CCO)ccc1NCCO [HC BLUE 2] | ◯ | 6.43 | 6.44 | 6.15 | X | 0.00 |  |  |  |  |  |  |  |  |  |  |  | 
O=[N+]([O-])c1ccccc1NCCO [HC YELLOW 2] | ◯ | 6.43 | 6.42 | 6.44 | X | 97.6 | stable with time |  |  |  |  |  |  |  |  |  |  | 
O=S(=O)([O-])c1ccc(N=Nc2c(O)ccc3ccccc23)cc1.[Na+] [ORANGE 205] | Δ | 6.44 | 6.43 | 6.45 | X | 98.7 |  |  |  |  |  |  |  |  |  |  |  | 
Cc1ccc(Nc2ccc(O)c3c2C(=O)c2ccccc2C3=O)c(S(=O)(=O)[O-])c1.[Na+] [PURPLE 401] | X | 6.54 | 6.52 | 6.54 | X | 92.2 |  |  |  |  |  |  |  |  |  |  |  | 
COc1ccc(N(C)N=Cc2cc[n+](C)cc2)cc1 [cationic dye (A), (1-methyl-1-paramethoxyphenyl)-2-(1-methane-4N-methylpyridinium)hydrazine chloride] | ⊚ | 6.43 | 6.42 | 6.42 | ⊚ | 99.6 |  |  |  |  |  |  |  |  |  |  |  | 
Cn1cc[n+](C)c1N=Nc1ccc(N)cc1 [cationic dye (C), 4-aminophenylazo-2N-methyl-5N-methylimidazo ium chloride] | ⊚ | 6.41 | 6.40 | 6.41 | ⊚ | 102.0 |  | 6.5 | 6.8 | 7.0 | 7.7 | 8.5 | 9.0 | 6.5 | 6.0 | 5.7 | 5.3 | 5.0
